These compounds were tested on Ba/F3 EGFR Del19/C797S cells (assay: Cell proliferation inhibition assay (Cell Titer-Glo), Ba/F3 EGFR Del19/C797S). Conditions: 72 hours, read-out: Ba/F3 EGFR Del19_C797S IC50.
Format: cell-based
Text: Test Example 2: Cell Proliferation Inhibition Assay
Experimental objective: The objective of this test example is to test the inhibitory activity of compounds on the proliferation of different EGFR C797S drug-resistant mutant cell lines Ba/F3 EGFR Del19/T790M/C797S, Ba/F3 EGFR L858R/T790M/C797S, and Ba/F3 EGFR Del19/C797S.
• Ba/F3 EGFR Del19/T790M/C797S cells were purchased from KYinno Biotechnology Co., Ltd.; • Ba/F3 EGFR Del19/C797S cells were purchased from CoBioer Biosciences Co., Ltd.; • Ba/F3 EGFR L858R/T790M/C797S cells were purchased from CoBioer Biosciences Co., Ltd.; • Cell Titer-Glo was purchased from Promega, with a catalog number of G7573; • RPMI 1640 was purchased from Gibco, with a catalog number of 22400089; • FBS was purchased from Gibco, with a catalog number of 10091148; • cell culture plates were purchased from Corning, with a catalog number of 3610.
The inhibitory activity of the compound on the proliferation of different EGFR C797S drug-resistant mutant cell lines was detected using the Cell Titer-Glo method. The different cell lines were cultured in RPMI 1640 complete culture medium containing 10% FBS under conditions of 37° C. and 5% CO2, the cells were collected by centrifugation when growing to a certain density, and adjusted to appropriate cell density after counting, the cells were spread on a white 96-well plate at 90 μL/well, and cultured in a 37° C., 5% CO2 incubator overnight, prepared compound solutions of different concentrations were added at 10 μL/well, corresponding solvent controls were set, and all wells were cultured in a 37° C., 5% CO2 incubator for 72 hours, 50 μL of CellTiter-Glo solution was added to each well, shook and mixed evenly, and incubated in the dark for 10 minutes, and a BioTek Synergy H1 microplate reader was used for reading.
The luminescence signal value was used to calculate the inhibition rate. Graphpad Prism software was used to fit the concentration and inhibition rate to a nonlinear regression curve, so as to obtain the IC50 value, as shown in Tables 3 and 4 below for details.

Row | Compound | IC50
1 | CC(C)c1ccc(N2C[C@H](CS(C)(=O)=O)[C@H]2C)c2cnc(Nc3ccnc(-c4cnn(C5CC5(F)F)c4)n3)cc12 (stereo partly drawn) [Example 12, N-(2-(1-(2,2-difluorocyclopropyl)-1H-pyrazol-4-yl)pyrimidin-4-yl)-5-isopropyl-8-((2R,3S)-2-methyl-3-((methanesulfonyl)methyl)azetidin-1-yl)isoquinolin-3-amine] | 56 nM
2 | CC(C)c1ccc(N2C[C@H](CS(C)(=O)=O)[C@H]2C)c2cnc(Nc3ccnc(-c4cnn(C5(C#N)CC5)c4)n3)cc12 [Example 13, 1-(4-(4-((5-isopropyl-8-((2R,3S)-2-methyl-3-((methanesulfonyl)methyl)azetidin-1-yl)isoquinolin-3-yl)amino)pyrimidin-2-yl)-1H-pyrazol-1-yl)cyclopropane-1-carbonitrile] | 82 nM
3 | CC(C)c1ccc(N2C[C@H](CS(C)(=O)=O)[C@H]2C)c2cnc(Nc3ccnc(-c4cnn([C@@H](C)C(F)(F)F)c4)n3)cc12 [Example 22A, 5-isopropyl-8-((2R,3S)-2-methyl-3-((methanesulfonyl)methyl)azetidin-1-yl)-N-(2-(1-((S)-1,1,1-trifluoropropan-2-yl)-1H-pyrazol-4-yl)pyrimidin-4-yl)isoquinolin-3-amine] | 95 nM
4 | CC(C)c1ccc(N2C[C@H](CS(C)(=O)=O)[C@H]2C)c2cnc(Nc3ccnc(-c4cnn(C5(CF)CC5)c4)n3)cc12 [Example 29, N-(2-(1-(1-(fluoromethyl)cyclopropyl)-1H-pyrazol-4-yl)pyrimidin-4-yl)-5-isopropyl-8-((2R,3S)-2-methyl-3-((methanesulfonyl)methyl)azetidin-1-yl)isoquinolin-3-amine] | 64 nM
5 | CC(C)c1c(F)cc(N2C[C@H](CS(C)(=O)=O)[C@H]2C)c2cnc(Nc3ccnc(-c4cnn(C)c4)n3)cc12 [Example 39, 6-fluoro-5-isopropyl-N-(2-(1-methyl-1H-pyrazol-4-yl)pyrimidin-4-yl)-8-((2R,3S)-2-methyl-3-((methanesulfonyl)methyl)azetidin-1-yl)isoquinolin-3-amine] | 73 nM
6 | CC(C)c1ccc(N2CC(CC#N)C2)c2cnc(Nc3ccnc(-c4cnn(S(=O)(=O)C5CC5)c4)n3)cc12 [Example 40, 2-(1-(3-((2-(1-(cyclopropylsulfonyl)-1H-pyrazol-4-yl)pyrimidin-4-yl)amino)-5-isopropylisoquinolin-8-yl)azetidin-3-yl)acetonitrile] | 70 nM
7 | COC1(n2cc(-c3nccc(Nc4cc5c(C(C)C)ccc(N6C[C@H](CS(C)(=O)=O)[C@H]6C)c5cn4)n3)cn2)CC1 [Example 49, 5-isopropyl-N-(2-(1-(1-methoxycyclopropyl)-1H-pyrazol-4-yl)pyrimidin-4-yl)-8-((2R,3S)-2-methyl-3-((methanesulfonyl)methyl)azetidin-1-yl)isoquinolin-3-amine] | 41 nM
8 | CC(C)c1ccc(N2C[C@H](CS(C)(=O)=O)[C@H]2C)c2cnc(Nc3ccnc(-c4cnn(C5(CC#N)CC5)c4)n3)cc12 [Example 50, 2-(1-(4-(4-((5-isopropyl-8-((2R,3S)-2-methyl-3-((methanesulfonyl)methyl)azetidin-1-yl)isoquinolin-3-yl)amino)pyrimidin-2-yl)-1H-pyrazol-1-yl)cyclopropyl)acetonitrile] | 51 nM
9 | CC#CCn1cc(-c2nccc(Nc3cc4c(C(C)C)ccc(N5C[C@H](CS(C)(=O)=O)[C@H]5C)c4cn3)n2)cn1 [Example 52, N-(2-(1-(but-2-yn-1-yl)-1H-pyrazol-4-yl)pyrimidin-4-yl)-5-isopropyl-8-((2R,3S)-2-methyl-3-((methanesulfonyl)methyl)azetidin-1-yl)isoquinolin-3-amine] | 49 nM
10 | Cc1nn(C)cc1-c1nccc(Nc2cc3c(C(C)C)ccc(N4CC(NS(C)(=O)=O)C4)c3cn2)n1 [Example 60, N-(1-(3-((2-(1,3-dimethyl-1H-pyrazol-4-yl)pyrimidin-4-yl)amino)-5-isopropylisoquinolin-8-yl)azetidin-3-yl)methanesulfonamide] | 26 nM
11 | CC(C)c1ccc(C2CC(CS(C)(=O)=O)C2)c2cnc(Nc3ccnc(-c4cn(C)nc4Cl)n3)cc12 (stereo not shown) [Example 63, N-(2-(3-chloro-1-methyl-1H-pyrazol-4-yl)pyrimidin-4-yl)-5-isopropyl-8-(3-((methanesulfonyl)methyl)cyclobutyl)isoquinolin-3-amine] | 30 nM

Other lines, results leading:

Row | IC50 | Compound
12 | 60 nM | CC(C)c1ccc(N2C[C@H](CS(C)(=O)=O)[C@H]2C)c2cnc(Nc3ccnc(-c4c[nH]nc4Cl)n3)cc12 [Example 10, N-(2-(3-chloro-1H-pyrazol-4-yl)pyrimidin-4-yl)-5-isopropyl-8-((2R,3S)-2-methyl-3-((methanesulfonyl)methyl)azetidin-1-yl)isoquinolin-3-amine]
13 | 41 nM | C=CCn1cc(-c2nccc(Nc3cc4c(C(C)C)ccc(N5C[C@H](CS(C)(=O)=O)[C@H]5C)c4cn3)n2)cn1 [Example 51, N-(2-(1-allyl-1H-pyrazol-4-yl)pyrimidin-4-yl)-5-isopropyl-8-((2R,3S)-2-methyl-3-((methanesulfonyl)methyl)azetidin-1-yl)isoquinolin-3-amine]
14 | 49 nM | C#CCn1cc(-c2nccc(Nc3cc4c(C(C)C)ccc(N5C[C@H](CS(C)(=O)=O)[C@H]5C)c4cn3)n2)cn1 [Example 53, 5-isopropyl-8-((2R,3S)-2-methyl-3-((methanesulfonyl)methyl)azetidin-1-yl)-N-(2-(1-(prop-2-yn-1-yl)-1H-pyrazol-4-yl)pyrimidin-4-yl)isoquinolin-3-amine]
15 | 25 nM | CC(C)c1ccc(N2C[C@H](CS(C)(=O)=O)[C@H]2C)c2cnc(Nc3ccnc(-c4cn(C)nc4C#N)n3)cc12 [Example 55, 4-(4-((5-isopropyl-8-((2R,3S)-2-methyl-3-((methanesulfonyl)methyl)azetidin-1-yl)isoquinolin-3-yl)amino)pyrimidin-2-yl)-1-methyl-1H-pyrazole-3-carbonitrile]
16 | 10 nM | CC(C)c1ccc(N2C[C@H](CS(C)(=O)=O)[C@H]2C)c2cnc(Nc3ccnc(-c4cn(C)nc4C(F)(F)F)n3)cc12 [Example 56, 5-isopropyl-8-((2R,3S)-2-methyl-3-((methanesulfonyl)methyl)azetidin-1-yl)-N-(2-(1-methyl-3-(trifluoromethyl)-1H-pyrazol-4-yl)pyrimidin-4-yl)isoquinolin-3-amine]
17 | 26 nM | CCc1nn(C)cc1-c1nccc(Nc2cc3c(C(C)C)ccc(N4C[C@H](CS(C)(=O)=O)[C@H]4C)c3cn2)n1 [Example 57, N-(2-(3-ethyl-1-methyl-1H-pyrazol-4-yl)pyrimidin-4-yl)-5-isopropyl-8-((2R,3S)-2-methyl-3-((methanesulfonyl)methyl)azetidin-1-yl)isoquinolin-3-amine]
18 | 52 nM | Cc1nn(CCO)cc1-c1nccc(Nc2cc3c(C(C)C)ccc(N4C[C@H](CS(C)(=O)=O)[C@H]4C)c3cn2)n1 [Example 58, 2-(4-(4-((5-isopropyl-8-((2R,3S)-2-methyl-3-((methanesulfonyl)methyl)azetidin-1-yl)isoquinolin-3-yl)amino)pyrimidin-2-yl)-3-methyl-1H-pyrazol-1-yl)ethan-1-ol]
19 | 62 nM | CC(C)c1ccc(N2C[C@H](CS(C)(=O)=O)[C@H]2C)c2cnc(Nc3ccnc(-c4cn(CCO)nc4C(F)(F)F)n3)cc12 [Example 59, 2-(4-(4-((5-isopropyl-8-((2R,3S)-2-methyl-3-((methanesulfonyl)methyl)azetidin-1-yl)isoquinolin-3-yl)amino)pyrimidin-2-yl)-3-(trifluoromethyl)-1H-pyrazol-1-yl)ethan-1-ol]
20 | 40 nM | CC(C)c1ccc(N2C[C@H](CS(C)(=O)=O)[C@H]2C)c2cnc(Nc3ccnc(-c4cn(C)nc4F)n3)cc12 [Example 62, N-(2-(3-fluoro-1-methyl-1H-pyrazolyl-4-yl)pyrimidin-4-yl)-5-isopropyl-8-((2R,3S)-2-methyl-3-((methanesulfonyl)methyl)azabut-1-yl)isoquinolin-3-amine]
21 | 62 nM | [2H]C([2H])([2H])n1cc(-c2nccc(Nc3cc4c(C(C)C)ccc(N5C[C@H](CS(C)(=O)=O)[C@H]5C)c4cn3)n2)c([N+](=O)[O-])n1 [Example 64, 5-isopropyl-8-((2R,3S)-2-methyl-3-((methanesulfonyl)methyl)azetidin-1-yl)-N-(2-(1-(methyl-d3)-3-nitro-1H-pyrazol-4-yl)pyrimidin-4-yl)isoquinolin-3-amine]
22 | 84 nM | [2H]C([2H])([2H])n1cc(-c2nccc(Nc3cc4c(C(C)C)ccc(N5C[C@H](CS(C)(=O)=O)[C@H]5C)c4cn3)n2)c(F)n1 [Example 65, N-(2-(3-fluoro-1-(methyl-d3)-1H-pyrazol-4-yl)pyrimidin-4-yl)-5-isopropyl-8-((2R,3S)-2-methyl-3-((methylsulfonyl)methyl)azabut-1-yl)isoquinolin-3-amine]
